Data set [1] in a line: Comparative bioavailability: baclofen plasma levels after oral baclofen or example 15. The settings on record: 20 ug/kg, baclofen dosed 20 mcg/kg p.o. Format: in vivo. The method, then:
(§1) The prodrugs compounds of the present invention, i.e. the compounds of formula-I release in-vivo the compounds of formula III. Two of the representative compounds of the present invention i.e. compound of example 5 and compound 15, were tested to determine the comparative bioavailability of the drug and the prodrug. The following method was employed for the determination of bioavailability of the test compound of example 5.
(§2) Table 1 and Table 2 below provide Dose-concentration data for the representative compounds 5 and compound 15 of the invention, which are prodrugs of gabapentin and baclofen respectively.

For data set [2] the following is noted: oral; cited from earlier work.
The nature of data set [3]: Comparative bioavailability: LC-MS determination of gabapentin in plasma after oral gabapentin or example 5. Format: in vivo. The settings on record: for dose dependence of bioavailability / absorption (in words): data of Table 1, 50 and 100 mg/kg p.o.; for AUC(0-t): po, t = 24 hrs, plasma. As to the method: as §1
Liquid Chromatography Mass Spectrometric Method for the Determination of Gabapentin from Example 5 in Plasma.
Mobile phase: Prepare 2 mM ammonium acetate solution in milliQ water and adjust the pH to 3.0 with formic acid. Mix above buffer solution and acetonitrile in the ratio (30:70 v/v) and filter.
Column: Hypurity C18, 50×2.1 mm, 5μ; Column oven temperature: 40° C.; Flow rate: 0.25 ml/min; Injection volume: 10 μl; Run time: 2.0 min.; Retention time: Example 5: 1.0 min.; Gabapentin: 1.0 min.; Carbamazepine: 1.0 min.;
Mass Parameters: Spray Voltage: 3500 V; Sheath Gas Pressure: 35 ml/min; Capillary Temperature: 380° C.; Mode: Positive; Aux gas pressure: 10 ml/min
For Gabapentin Linearity Range: 200 ng-19600 ng/ml in mobile phase.
For example 5: Linearity Range: 50 ng 5000 ng/ml in mobile phase.
A 100 μl plasma sample and 5 μl of internal standard was taken in a micro centrifuge tube. Vortex for 20-30 sec. The test samples were loaded in preconditioned HLB cartridges. The cartridge was washed with 1 ml Milli-Q water the sample was eluted with 500 μl of mobile phase. The sample was centrifuged at 15000 rpm for 5 minutes and the supernatant was collected for analysis.
as §2

Data set [4] relates to mouse. Particulars: cited from earlier work.
For data set [5] the following is noted: cited from earlier work.

Like-named read-outs stand apart in the source and are kept apart here.

One may read the Cmax as the maximum level reached in the sampled fluid or tissue. Usually AUC(0-t) stands for the area under the concentration-time curve up to a stated or last time point. Higher therefore signals more exposure. With `NCC(CC(=O)O)c1ccc(Cl)cc1` (centres unmarked) [Baclofen], the highest level in data set [1] (Cmax) was 3600 ng/mL. The AUC(0-t) in data set [1] (t = 24 hrs) amounted to 15000 ng·h/mL.
On to `NC[C@H]1CC[C@H](C(=O)O)CC1` [Tranexamic acid, trans-4-(aminomethyl)cyclohexanecarboxylic acid], for which the “orally administered dose absorbed” value in data set [2] is given as 35-40%.
In the case of `CCOC(=O)C(C)=NOC(=O)NCC1(CC(=O)O)CCCCC1` [Example 5, N-[(Ethyl oximinopropionate-2-yl)carbonyl]-1-aminomethyl cyclohexaneacetic acid], in data set [3], the “dose dependence of bioavailability / absorption (in words)” value is recorded as “dose-proportional bioavailability”.
As a reminder, the LD50 is the dose at which mortality reaches 50%. On to `O=C1CC2(CCCCC2)CN1` [corresponding lactam], for which the LD50 in data set [4] was 300 mg/kg.
Regarding `NCC1(CC(=O)O)CCCCC1` [Gabapentin, 1-(aminomethyl)cyclohexaneacetic acid], the “dose dependence of bioavailability / absorption (in words)” value in data set [3] is recorded as “non-linear saturable absorption, with lower bioavailability at the higher dose”. For the same compound, the figures for the AUC(0-t) in data set [3] (gabapentin dosed 50 mg/kg p.o.) and in data set [3] (gabapentin dosed 100 mg/kg p.o.) were 85000 ng·h/mL and 99000 ng·h/mL, respectively. Also, the values for the oral bioavailability result in data set [5] (900 mg/day oral) and in data set [5] (1800 mg/day oral) were “approximately 60%” and ~27%, respectively. Moreover, in data set [4], the LD50 is on record as > 8000 mg/kg.

The record behind these values is patent publication US20100145057A1, “NOVEL PRODRUGS” (SUN PHARMA ADVANCED RESEARCH COMPANY LTD., priority 2007, published 2010).
